Test results: paper PMC5845537 (Frontiers in Pharmacology, 2018)
Where two headings read alike, the source gives them in different places.

Assays:
5-HT1A receptors = settings: 2014, cited from earlier work
GABAA receptor = experiment: Ex vivo autoradiography, GABAA receptor saturation binding ([3H]muscimol), medial prefrontal cortex; design: species or system rat; settings: PCP/vortioxetine group vs all other treatment groups
Description: Rats used in ex vivo autoradiography (EVA) experiments were randomly assigned to one of four experimental groups characterized by either subchronic saline or PCP (as described above) along with either vehicle or vortioxetine-infused food (1.8 g vortioxetine/kg food weight, as described in the attentional set shifting task). On day 8 of PCP withdrawal, rats were anesthetized using CO2 and killed by decapitation. Brains were quickly and gently removed from the skull, flash frozen on powdered dry ice, and stored at -20°C until sectioning. Later, 12 μm coronal sections were collected from an area ranging from approximately +4.2 mm to +2.3 mm anterior to Bregma ([Paxinos and Watson, 1998]) using a cryostat (MicroM, Germany) and were thaw-mounted on glass microscope slides. This range of coronal slices was chosen in order to study the prelimbic and infralimbic subregions of the medial prefrontal cortex, given the importance of these regions in tests of executive function such as the attentional set shifting task ([Ng et al., 2007]). After the tissue mounted on the microscope slides had dried thoroughly (in order to reduce damage from freezing), slides were packed into slide boxes with desiccator pellets, and stored at -20°C for use in EVA saturation binding and competition experiments.
Each of the EVA procedures used in this study are variations on a similar theme. On the day of an experiment, slide-boxes were defrosted under a constant stream of air at room temperature until the boxes were dry and equilibrated with the environment in terms of temperature. This step was undertaken in order to ensure brain tissue was not damaged by frosting due to a sudden change in humidity. Prior to any binding experiments, slides were preincubated in the appropriate preincubation buffer and dried at room temperature. Subsequently, tissue was incubated in an assay buffer containing a radioligand appropriate for the receptor of interest, then rinsed in assay buffer, and dried overnight in a vacuum desiccator. Specific information on the contents of the preincubation buffers, assay buffers and other assay conditions are listed in Table 2. Finally, slides were opposed to a tritium-sensitive phosphor screen (Fuji imaging plate, GE Healthcare, Pittsburgh, PA, United States) for 5 days before being read in a phosphorimager (Typhoon FLA7000, GE Healthcare). Analysis methods are listed below under statistical analyses.
In saturation binding experiments, the concentration of the relevant radioligand in the assay buffer was systematically varied in order to determine the KD and Bmax of the receptor in question. At each radioligand concentration, the non-specific binding was determined on a separate slide by including a high concentration of a non-radioactive competitor ligand in the assay buffer along with the radioligand. For GABAA receptor saturation binding experiments, [^3H]muscimol was examined in quarter log steps ranging from 0.56 to 300 nM. For GABAB receptor saturation binding experiments, [^3H]CGP54626 was examined in quarter log steps ranging from 0.17 to 100 nM.
For saturation binding studies, the primary dependent measures were pKD and Bmax. […] A linear regression was performed to determine the relationship between intensity and bound radioactivity (measured on the standards in units of μCi/g). […] These optical intensity values were transformed into bound radioactivity (expressed as nCi/mg) measurements by interpolation from the standard curve noted above. […]

5-HT3 receptor = 5-HT3 receptor occupancy (literature); type: in vivo, rat; settings: 0.22 g/kg subchronic dose; estimated based on known SERT:5-HT3 receptor occupancy relationships; ref Leiser et al., 2014
rodent 5-HT7 receptors = settings: rodent vs human; no reference given; cited from earlier work
5-HT7 receptors = settings: 2014, cited from earlier work
5-HT1B receptors = settings: 2014, cited from earlier work
rodent 5-HT1A receptors = settings: rodent vs human; no reference given; cited from earlier work
SERT = settings: cited from earlier work
[1] = 10 mg/kg 1 h s.c., ref Leiser et al.
[2] = subchronic dose used in the mouse OR and object placement tasks, expected, ref Wallace et al., Waller et al., 2017

Compound: Cc1ccc(Sc2ccccc2N2CCNCC2)c(C)c1 [vortioxetine]
- occupancy at 5-HT1A receptors (5-HT1A receptors; [1]): ≈ 40%
- occupancy at 5-HT1A receptors (5-HT1A receptors; [2]): negligible
- effect of treatment on [3H]muscimol affinity for the GABAA receptor (GABAA receptor): small but significant reduction
- occupancy at 5-HT3 receptors (5-HT3 receptor): full occupancy
- lesser affinity at rodent 5-HT7 receptors by comparison to humans (rodent 5-HT7 receptors): approximately 10 fold
- occupancy at 5-HT7 receptors (5-HT7 receptors; [1]): ≈ 40%
- occupancy at 5-HT7 receptors (5-HT7 receptors; [2]): negligible
- occupancy at 5-HT1B receptors (5-HT1B receptors; 10 mg/kg 1 h s.c., full occupancy, ref Leiser et al.): ≥ 80%
- occupancy at 5-HT1B receptors (5-HT1B receptors; subchronic dose used in the mouse OR and object placement tasks, ref Wallace et al., Waller et al., 2017): approximately 50%
- lesser affinity at rodent 5-HT1A receptors by comparison to humans (rodent 5-HT1A receptors): approximately 10 fold
- occupancy at the SERT (SERT; 1 mg/kg acute dose, ref Leiser et al., 2014): 60–65%
- occupancy at SERT (SERT; 10 mg/kg 1 h s.c., full occupancy, ref Leiser et al., 2014): ≥ 80%
- occupancy at the SERT (SERT; 0.22 g/kg subchronic dose (food), ref Waller et al., 2017): approximately 50%
- occupancy at SERT (SERT; subchronic dose used in the mouse OR and object placement tasks, ref Wallace et al., 2014, Waller et al., 2017): full occupancy
- SERT occupancy (SERT; the vortioxetine doses used, ref Stenkrona et al., 2013, Leiser et al., 2014): 50–90%
